Laboratory results published in patent publication EP0972448A2, “Parasitic mite control on beneficial insects” (American Cyanamid Company, priority 1998, dated 2000).

Legend:
Type in all cases: in vivo
[1] = tested on: Varroa jacobsoni (Varroa mites); assay: Efficacy against Varroa jacobsoni parasites on topically treated infested honeybees; settings: 1 µl acetone droplet on dorsal abdomen of bee, 5 days at 31°C
Description: (§1) In this evaluation, honeybees (Apis mellifera) taken from hives which are 70-90% infested with Varroa jacobsoni (Varroa mites) are chilled to immobilize the bees. A 1 µl droplet of an acetone solution of tebufenpyrad is applied to the dorsal abdomen of each bee. Control bees receive 1 µl droplet of acetone. A total of 50-52 bees are treated for each dose rate tested. Treatment dose rates are based upon the LD50 (dose rate required to obtain 50% mortality of healthy uninfected bees) of tebufenypyrad and are set at 10% of the LD50 and subsequent 10-fold dilution thereof. The treated bees are placed in an incubator at 31°C in the dark and fed 50% sugar water ad libitum for 5 days. After incubation, the bees are examined for mortality and mite infestation. The results are shown in Table I below, as % mortality of the total of the bees and the total of the mites.

[2] = tested on: honeybees (Apis mellifera); assay: Mortality of topically treated honeybees in the Varroa jacobsoni evaluation; settings: 1 µl acetone droplet on dorsal abdomen, 5 days at 31°C
Description: as §1

[3] = tested on: Acarapis woodi (trachea mites); assay: Efficacy against Acarapis woodi parasites, contact with treated glass slides; settings: slides dipped in 500 ppm acetone solution
Description: In this evaluation, honeybees (Apis mellifera) which are infested with Acarapis woodi (trachea mites) are dissected to remove the infested tracheae. Glass microscope slides are dipped into acetone solutions of tebufenpyrad (500 ppm)and the acetone is allowed to evaporate. Infested tracheae are placed directly on the treated slides. The mites are removed from the tracheae by dissection and forced to walk across the treated area. The elapsed time is recorded for 100% mortality, i.e. no movement is observed upon agitation.

[4] = tested on: Varroa jacobsoni; assay: Field evaluation against Varroa jacobsoni in infested beehives, stickyboard mite count; settings: two strips with 18% tebufenpyrad in 60:40 beeswax:lard, count taken 24 hours after treatment
Source text: In this evaluation, two Varroa jacobsoni infested beehives are monitored for the extent of infestation using stickyboards inserted at the bottom of the hive. Data are presented as the number of mites trapped on the stickyboard per day. Two strips (2.5 x 17cm) containing 18% tebufenpyrad dissolved in a 60:40 beeswax:lard (Crisco®) mixture are inserted into each hive brood chamber as per standard practice. One day after treatment, the stickyboards are removed and the dead mites counted.

CCc1nn(C)c(C(=O)NCc2ccc(C(C)(C)C)cc2)c1Cl [Tebufenpyrad, N-(4-t-butylbenzyl)-4-chloro-3-ethyl-1-methylpyrazole-5-carboxamide]
% Mortality Parasites ([1]; dose 0.006 µg/bee): 58%
% Mortality Parasites ([1]; dose 0.06 µg/bee): 44%
% Mortality Parasites ([1]; dose 0.6 µg/bee): 92%
% Mortality Bees ([2]; dose 0.006 µg/bee): 24%
% Mortality Bees ([2]; dose 0.06 µg/bee): 25%
% Mortality Bees ([2]; dose 0.6 µg/bee): 28%
Time required in minutes to achieve 100% mortality ([3]; Rep. 1, 7 mites): 8.5 min
Time required in minutes to achieve 100% mortality ([3]; Rep. 2, 10 mites): 8 min
Time required in minutes to achieve 100% mortality ([3]; Rep. 3, 7 mites): 8 min
Treatment mites/day ([4]; Hive 1, pretreatment 101 mites/day): 1777 mites/day
Treatment mites/day ([4]; Hive 2, pretreatment 66 mites/day): 1080 mites/day
